This is an account of results in the Deep4Chem optical property database.

This series can be described thus: solvent given as SMILES.

For the compound `CCN(CC)c1ccc2c(c1)oc(=O)c1c(=O)oc3cc(C#Cc4ccc(C#N)cc4)ccc3c12`, the absorption maximum runs as follows: (in CS(C)=O) 481 nm; (in ClCCl) 476 nm.
The compound `CN(C)c1ccc(-c2cc(-c3ccccc3)nn2C)cc1` showed an absorption maximum (in ClCCl) of 280 nm.
For the setting “in C1CCOC1”, `COc1cc2c(cc1-c1ccc(N(c3ccccc3)c3ccccc3)cc1)Cc1c3c(c4c(c1-2)-c1cc(OC)c(-c2ccc(N(c5ccccc5)c5ccccc5)cc2)cc1C4)C(=O)N(CCC(C)C)C3=O` had an absorption maximum of 428 nm.
Regarding `CCN(CC)c1cc2oc(=O)cc(C)c2cc1C`, the absorption maximum (in CCO) was 442 nm.
Take `CC(C)(C)[Si](C)(C)c1cccc2ccccc12`: the absorption maximum (in C1CCCCC1) worked out at 295 nm.
Take `O=C([O-])c1c2ccccc2c(C(=O)[O-])c2ccccc12`: the absorption maximum (in CN(C)C=O) stood at 400 nm.
The compound `CC(C)c1cc(C(C)C)c(B2c3ccccc3Oc3cc(-n4c5ccccc5c5ccc6c(c7ccccc7n6-c6ccccc6)c54)ccc32)c(C(C)C)c1` returned an absorption maximum (in Cc1ccccc1) of 438 nm.
On to `CN(C)c1ccc(C2=Nc3scc(-c4ccc(C#N)cc4)[n+]3[B-](F)(F)O2)cc1`, for which the absorption maximum is recorded as 411 nm (in C1CCOC1), 411 nm (in CC#N), 414 nm (in Cc1ccccc1) and 415 nm (in ClCCl).
In turn, `CCOC(=O)c1cc(C(=O)OCC)c2cc(OC)ccc2n1` came in with an absorption maximum (in CCO) of 355 nm.
Regarding `Cc1ccc(C2=C3C=C(I)C=[N+]3[B-](F)(F)n3cccc32)cc1`, the absorption maximum was 523.5 nm (in C1CCCCC1); 516.5 nm (in CC#N); 518 nm (in CCO); 517 nm (in CCOC(C)=O); 516.5 nm (in CO); 513 nm (in OCC(F)(F)F).
For `Cc1ccc(C2=[N+]3C(=Cc4ccc(C)n4[B-]3(F)F)c3ccccc32)[nH]1`, the absorption maximum was determined as 599 nm (in C1CCOC1); 592 nm (in CC#N); 602 nm (in CCCCCC); 595 nm (in CO); 606 nm (in Cc1ccccc1); 600 nm (in ClCCl).
For the compound `CCN(CC)c1ccc(/C=C/C2=[O+][B-](F)(F)Oc3c2c(=O)oc2cc(N(CC)CC)ccc32)cc1`, the absorption maximum runs as follows: (in C1CCCCC1) 542 nm; (in C1COCCO1) 569 nm; (in CC#N) 589 nm; (in CC(C)=O) 584 nm; (in CCO) 581 nm; (in CCOC(C)=O) 571 nm. Moreover, the absorption maximum reads like this: (in CO) 582 nm; (in CS(C)=O) 607 nm; (in Cc1ccccc1) 567 nm; (in ClC(Cl)Cl) 581 nm; (in ClCCl) 587 nm; (in OCC(O)CO) 610 nm. The compound also yielded an absorption maximum (in OCCO) of 605 nm.
As to `F[B-]1(F)OC(c2ccc(C(F)(F)F)cc2)=Cc2c3ccccc3cc[n+]21`, the absorption maximum (in ClC(Cl)Cl) is 398.5 nm.
For `c1cc2c3c4c5c(cccc5cc3c1)-c1cccn1B4n1cccc1-2`, where the note is “in C1CCOC1”, the absorption maximum is recorded as 505 nm.
Compound `COc1ccc(N(c2ccc(OC)cc2)c2ccc(-c3ccc(-c4ccc(-c5ccc(-c6ccc(N(c7ccc(OC)cc7)c7ccc(OC)cc7)cc6)s5)c5nsnc45)s3)cc2)cc1` came in with an absorption maximum (in ClC(Cl)Cl) of 545 nm.
In the case of `O=C1C=C(Nc2cc(F)cc(F)c2)C(=O)c2ccccc21`, the absorption maximum (in CO) is recorded as 448 nm.
Regarding `CC(C)(C)Nc1c(-c2ccc(-c3cc(=O)cc(-c4ccccc4)o3)cc2)nc2ccccn12`, the absorption maximum (in ClCCl) is on record as 355 nm.
For `Nc1cccc2cc3ccccc3cc12`, the absorption maximum (in C1CCCCC1) was 384.17 nm.
Where the note is “in CO”, `CC1(C)C(/C=C/C2=C(Cl)C(=C/C=C3/N(CCCS(=O)(=O)[O-])c4ccccc4C3(C)C)/CCC2)=[N+](CCCS(=O)(=O)[O-])c2ccccc21` registered an absorption maximum of 778 nm.
For the compound `COc1ccc(C#Cc2nc(C#Cc3ccc(OC)cc3)c(C#Cc3ccc(OC)cc3)c(C#Cc3ccc(OC)cc3)c2C#Cc2ccc(OC)cc2)cc1`, the absorption maximum (in ClCCl) is 421 nm.
